Reference: BindingDB's records for doi:10.1016/0960-894X(95)00024-N (1995)

Assay: Concentration required for the in vitro inhibition of Acyl coenzyme A:cholesterol acyltransferase (ACAT) in intestinal microsomes isolated from cholesterol-fed rabbits

IC50	SMILES
440 nM	CCCCCCCCCCCCCCCn1nnc(C(NC(=O)c2c(C)cccc2C)c2ccccc2)n1 (configuration not stated) [2,6-Dimethyl-N-[(2-pentadecyl-2H-tetrazol-5-yl)-phenyl-methyl]-benzamide]
3700 nM	CCCCCCCn1nnc(C(NC(=O)c2c(C)cccc2C)c2ccccc2)n1 (configuration not stated) [N-[(2-Heptyl-2H-tetrazol-5-yl)-phenyl-methyl]-2,6-dimethyl-benzamide]
